Data published in paper PMC9283133, “Human cytosolic transaminases: side activities and patterns of discrimination towards physiologically available alternative substrates” (Cellular and Molecular Life Sciences: CMLS, 2022).

Columns and labels:
[1] = biological target: T1, LDHA (lactate dehydrogenase A) (Homo sapiens, UniProt P00338); experiment: spectrophotometric reduction with NADH; assay type: biochemical
T1 construct: gift clone

PSAT1 = biological target: T2, PSAT1 (Homo sapiens, UniProt Q9Y617); experiment: end-point GDH assay of alpha-ketoglutarate; LC-MS of product; assay type: biochemical; conditions: L-Glu 1 mM as donor; pH 7.2, 37 C, 16 h
T2 sequence (Q9Y617 1-370): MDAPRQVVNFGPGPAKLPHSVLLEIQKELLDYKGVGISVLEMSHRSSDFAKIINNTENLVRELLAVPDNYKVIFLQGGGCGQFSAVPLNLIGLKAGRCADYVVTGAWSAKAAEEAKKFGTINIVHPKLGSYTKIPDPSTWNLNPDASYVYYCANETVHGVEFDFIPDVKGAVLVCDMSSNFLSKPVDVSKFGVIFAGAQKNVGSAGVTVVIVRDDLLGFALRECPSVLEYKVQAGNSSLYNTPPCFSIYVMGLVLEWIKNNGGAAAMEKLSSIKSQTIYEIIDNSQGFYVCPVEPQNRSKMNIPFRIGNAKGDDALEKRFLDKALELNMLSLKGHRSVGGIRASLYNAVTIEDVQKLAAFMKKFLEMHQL

[2] = biological target: T3, MDH1 (cytosolic malate dehydrogenase) (Homo sapiens, UniProt P40925); experiment: spectrophotometric reduction with NADH; assay type: biochemical
T3 construct: from human kidney cDNA, pET28a, His6-tagged, expressed in E. coli BL21(DE)
T3 sequence (P40925 2-334): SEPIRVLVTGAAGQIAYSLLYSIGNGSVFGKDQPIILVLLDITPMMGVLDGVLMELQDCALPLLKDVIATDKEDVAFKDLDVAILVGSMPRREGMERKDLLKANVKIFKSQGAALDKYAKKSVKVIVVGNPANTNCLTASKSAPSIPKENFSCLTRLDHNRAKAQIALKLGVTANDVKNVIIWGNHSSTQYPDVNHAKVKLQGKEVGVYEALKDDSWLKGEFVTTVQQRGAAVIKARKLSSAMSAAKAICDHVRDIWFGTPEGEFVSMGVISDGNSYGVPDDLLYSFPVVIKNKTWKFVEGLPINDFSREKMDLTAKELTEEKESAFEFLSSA

[3] = biological target: T4, TAT (tyrosine aminotransferase) (Homo sapiens, UniProt P17735); experiment: continuous coupled assay with MDH1 and NADH; assay type: biochemical; conditions: alpha-ketoglutarate 0.5 mM as acceptor; pH 8.0; read-out: apparent KM
T4 sequence (P17735 41-454): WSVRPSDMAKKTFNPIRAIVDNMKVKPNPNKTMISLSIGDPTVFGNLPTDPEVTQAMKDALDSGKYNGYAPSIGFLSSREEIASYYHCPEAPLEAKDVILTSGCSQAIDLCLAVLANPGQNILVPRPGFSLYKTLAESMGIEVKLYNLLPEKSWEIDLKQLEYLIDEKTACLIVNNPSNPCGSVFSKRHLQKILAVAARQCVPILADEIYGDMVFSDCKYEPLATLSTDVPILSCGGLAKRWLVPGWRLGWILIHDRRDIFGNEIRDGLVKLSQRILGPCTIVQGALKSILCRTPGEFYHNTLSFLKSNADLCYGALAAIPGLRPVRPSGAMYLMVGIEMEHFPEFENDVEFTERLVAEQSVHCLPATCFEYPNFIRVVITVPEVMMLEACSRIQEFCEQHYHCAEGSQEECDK
Text: continuous coupled assay with MDH1 and NADH on TAT (tyrosine aminotransferase) | the opposite is true for TAT (Fig. 3A)

[4] = substrate: N[C@@H](Cc1c[nH]c2ccccc12)C(=O)O; experiment: continuous coupled assay with MDH1 and NADH; assay type: biochemical, Homo sapiens; conditions: pyruvate 3 mM as acceptor, pH 8.0

CC(O)C(=O)C(=O)O (stereo not drawn) [3-hydroxy-2-ketobutyrate]
spectrophotometric reduction with NADH [1]: 3-hydroxy-2-ketobutyrate, is a substrate for LDHA

O=C(CO)COP(=O)(O)O [DHAP]
end-point GDH assay of alpha-ketoglutarate; LC-MS of product (PSAT1): DHAP, which reacted primarily with PSAT1

O=C(O)C(=O)Cc1c[nH]c2ccccc12 [IndPy]
spectrophotometric reduction with NADH [2]: recombinant MDH1 reduced with good efficiency IndPy

N[C@@H](Cc1c[nH]c2ccccc12)C(=O)O [L-Trp]
Km [3]: > 10 mM

B1: GTK (glutamine transaminase K; KYAT1) (Homo sapiens) (protein)
chain: MAKQLQARRLDGIDYNPWVEFVKLASEHDVVNLGQGFPDFPPPDFAVEAFQHAVSGDFMLNQYTKTFGYPPLTKILASFFGELLGQEIDPLRNVLVTVGGYGALFTAFQALVDEGDEVIIIEPFFDCYEPMTMMAGGRPVFVSLKPGPIQNGELGSSSNWQLDPMELAGKFTSRTKALVLNTPNNPLGKVFSREELELVASLCQQHDVVCITDEVYQWMVYDGHQHISIASLPGMWERTLTIGSAGKTFSATGWKVGWVLGPDHIMKHLRTVHQNSVFHCPTQSQAAVAESFEREQLLFRQPSSYFVQFPQAMQRCRDHMIRSLQSVGLKPIIPQGSYFLITDISDFKRKMPDLPGAVDEPYDRRFVKWMIKNKGLVAIPVSIFYSVPHQKHFDHYIRFCFVKDEATLQAMDEKLRKWKVEL
notes: cytosolic enzyme
Km [4]: 0.14 ± 0.03 mM
kcat/Km [4]: 490 ± 30 M⁻¹ s⁻¹
